Measured values reported in patent US12473250B2, “Molecular design of new antibiotics and antibiotic adjuvants against MCR strains” (priority 2019, dated 2025).
Converted amounts (≈) assume the structure as drawn.

Assays:
[1] = test system: Gram positive bacteria (SA and MRSA strains); experiment: Antimicrobial effect on Gram positive bacteria (Table 8); assay type: cell-based; parameters: key to antimicrobial effect on Gram positive bacteria: MIC (concentration giving 99% inhibition), concentrations in μg; details: compound alone
Method: MIC experiments of the antimicrobial agents were determined by a modified broth microdilution method in accordance with the Clinical and Laboratory Standards Institute (CLSI) guidelines using 96 well culture plates. In brief, serial dilutions of all plates were prepared at different concentrations (μg). The inoculum suspension was prepared by adding isolated colonies from a 18-20 hours on TSA plate into phosphate buffer (0.31 mM, pH 7.2) or in water for injection (BBraun) and adjusting the suspension to a turbidity equivalent to 0.5 McFarland Standard. Each well contained a final bacterial concentration of approximately 5×10^5 colony forming units (CFU)/mL. The plate was covered and incubated at 35° C. for 24 hours. […] For the microdilution plates, turbidity in wells can be measured at OD600 using TECAN infinite M200Pro. MIC was determined as […] concentration that gives a 99 percent inhibition.
The antimicrobial activity of the inventive combination was also tested against Gram positive bacteria, including the multi-drug resistant strains, such as MRSA. […] This means the combination of LC100/LC101 with colistin has broad antimicrobial spectrum, being active against both Gram positive and Gram negative bacteria.

[2] = test system: colistin resistant MCR (−) E. Coli strains; experiment: MIC, broth microdilution, compound alone; assay type: cell-based
Summary of the method: (§1)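 Modified CLSI broth microdilution; inoculum from 18–20 h TSA colonies adjusted to 0.5 McFarland, ~5×10^5 CFU/mL per well. Plates incubated 24 h at 35 °C; turbidity may be read at OD600. MIC defined as concentration giving 99% inhibition.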

[3] = test system: colistin resistant MCR (−) E. Cloacae strain 7023456439; experiment: MIC, broth microdilution, compound alone; assay type: cell-based; details: strain 7023456439 E. Cloacae
Summary of the method: as §1

[4] = test system: colistin resistant MCR (+) E. Coli strains; experiment: MIC, broth microdilution, compound alone; assay type: cell-based; details: compound alone
Summary of the method: as §1

[5] = test system: 6083655967 [MCR 1+; E.Coli]; experiment: Synergistic study between LC100 or LC101 with B2088; assay type: cell-based; details: for Combination MIC: strain 6083655967, value of each component
Method: The MICs of the individual drugs and LC compound in combinations were determined using the broth microdilution technique as recommended by the CLSI whereby the two anti-microbial agents were added in an equal amount. (e.g.: 50 μL of Colistin: 50 μL of LC compounds). Diluted media containing compounds and antibiotics will be serially diluted 2-fold, and LC compounds and antibiotics alone or in combination will be assayed at fixed synergy concentration. In all cases, the lowest concentration at which no visible growth occurred was be recorded to be the MIC value of individual and combined antibacterial agents. The results were obtained after 24 hours of incubation.
Using the combination of LC100 and colistin, the activity of a broad range of strains was further tested (Table 7).

[6] = Calcein leakage from large unilamellar vesicles; details: vesicles of 100 nm, DOPE/DOPG=3/1
Excerpt: FIG. 20 refers to a graph showing calcein leakage of LC100 and LC101 using large unilamellar vesicles of 100 nm. The lipid composition of the vesicle is DOPE/DOPG=3/1, mimicking the bacterial inner membrane. […] Further increase of LC100 or LC101 leads to decrease in the florescence because of a fluorescence quenching effect.

[7] = test system: colistin resistant MCR (−) E. Coli strains; experiment: Synergy study: colistin MIC in the presence of compound; assay type: cell-based; details: compound at 10 μg (Table 2a: 10 ug/ml)
Summary of the method: (§2)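 CLSI broth microdilution with colistin and LC compound added in equal amounts, 2-fold serial dilution, alone or combined at fixed synergy concentration. MIC taken as lowest concentration with no visible growth after 24 hours of incubation.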

[8] = test system: colistin resistant MCR (−) E. Cloacae strain 7023456439; experiment: as above; assay type: cell-based; details: strain 7023456439 E. Cloacae, compound at 10 μg (Table 2a: 10 ug/ml)
Summary of the method: as §2

[9] = test system: colistin resistant MCR (+) E. Coli strains; experiment: as above; assay type: cell-based; details: against mcr-1 bacteria; in words
Summary of the method: as §2

## COC(=O)C(CCCNC(=N)N)NC(=O)COc1ccc(/C=C/C(=O)c2ccc(OCC(=O)NC(CCCNC(=N)N)C(=O)OC)c(CC=C(C)C)c2O)cc1 (stereo not drawn) [LC101]
[1]; in words
  activity against Gram positive strains: good activity
[1]; strain MRSA ATCC 43300
  antimicrobial effect on Gram positive bacteria: 6.25
[1]; strain MRSA ATCC 700699
  antimicrobial effect on Gram positive bacteria: 6.25
[1]; strain MRSA DM 21455
  antimicrobial effect on Gram positive bacteria: 3.125
[1]; strain SA ATCC 6538
  antimicrobial effect on Gram positive bacteria: 3.125
[1]; strain SA ATCC 29213
  antimicrobial effect on Gram positive bacteria: 3.125
[1]; strain SA DM 4400R
  antimicrobial effect on Gram positive bacteria: 3.125
[2]; strain 6083672926, MCR (−)
  MIC: 25 µg/mL (≈ 32 µM)
[2]; strain 7023446108, MCR (−)
  MIC: 25 µg/mL (≈ 32 µM)
[2]; strain 7033607097, MCR (−)
  MIC: 50 µg/mL (≈ 64 µM)
[3]
  MIC: >50 µg/mL
[4]; strain 6075066346, MCR (+)
  MIC: 25 µg/mL (≈ 32 µM)
[4]; strain 6083655967, MCR (+)
  MIC: 25 µg/mL (≈ 32 µM)
[4]; strain 6103645107, MCR (+)
  MIC: 25 µg/mL (≈ 32 µM)
[4]; strain 6123520276, MCR (+)
  MIC: 50 µg/mL (≈ 64 µM)
[4]; strain 7013177695, MCR (+)
  MIC: 25 µg/mL (≈ 32 µM)
[4]; strain 7023436560, MCR (+)
  MIC: 25 µg/mL (≈ 32 µM)
[4]; strain 7023444207, MCR (+)
  MIC: 25 µg/mL (≈ 32 µM)
[5]; combination B2088 (Ac) + LC 101
  Combination MIC: 2 µg/mL
[5]; combination B2088 + LC 101
  Combination MIC: 2 µg/mL
[5]; killing E. coli with the mcr-1 mutation
  level of synergistic effect with B2088: 1 µg/mL
[6]
  calcein leakage / disruption of vesicles: significant florescence was detected
[7]; strain 6083672926, MCR(−)
  Colistin MIC in the presence of the compound: <0.195 µg/mL
[7]; strain 7023446108, MCR(−)
  Colistin MIC in the presence of the compound: <0.195 µg/mL
[7]; strain 7033607097, MCR(−)
  Colistin MIC in the presence of the compound: <0.195 µg/mL
[8]
  Colistin MIC in the presence of the compound: >12.5 µg/mL
[9]
  synergy with colistin: excellent synergy
